Calls of active or inactive are those of the source. No rule for the calls is given here.
Test system: CCRIS mutagenicity, Ames/micronucleus/aberration tests
Test: CCRIS mutagenicity studies
[1] = Test System: AMES SALMONELLA TYPHIMURIUM, Strain/Indicator: TA98, Metabolic Activation: NONE, Method: STANDARD PLATE
[2] = Test System: AMES SALMONELLA TYPHIMURIUM, Strain/Indicator: TA98, Metabolic Activation: RAT, LIVER, S-9, AROCLOR 1254, Method: STANDARD PLATE
[3] = Test System: AMES SALMONELLA TYPHIMURIUM, Strain/Indicator: TA100, Metabolic Activation: NONE, Method: STANDARD PLATE
[4] = Test System: AMES SALMONELLA TYPHIMURIUM, Strain/Indicator: TA100, Metabolic Activation: RAT, LIVER, S-9, AROCLOR 1254, Method: STANDARD PLATE
[5] = Test System: AMES SALMONELLA TYPHIMURIUM, Strain/Indicator: TA1535, Metabolic Activation: NONE, Method: STANDARD PLATE

Cc1cc2c(C)c3ccccc3c(C)c2cc1C
mutagenic call [1]: active; positive
mutagenic call [2]: active; positive
mutagenic call [3]: inactive; negative
mutagenic call [4]: active; positive

O=CN(O)c1ccc(Br)cc1
mutagenic call [1]: inactive; negative
mutagenic call [2]: active; positive
mutagenic call [3]: inactive; negative
mutagenic call [4]: active; positive

Nc1cc([N+](=O)[O-])cc([N+](=O)[O-])c1C(=O)O
mutagenic call (End Point: In vitro chromosomal aberrations, Test System: V79 Chinese hamster fibroblasts, Metabolic Activation: None): inactive; negative
mutagenic call (End Point: In vitro micronucleus, Test System: HepG2 human hepatoma cells, Metabolic Activation: None): active; positive
mutagenic call (Test System: Ames Salmonella typhimurium, Strain/Indicator: TA98, Metabolic Activation: None, Method: Standard plate): active; positive
mutagenic call (Test System: Ames Salmonella typhimurium, Strain/Indicator: TA98, Metabolic Activation: Rat, Liver, S-9, Method: Standard plate): active; positive
mutagenic call (Test System: Ames Salmonella typhimurium, Strain/Indicator: TA98NR, Metabolic Activation: None, Method: Standard plate): active; positive
mutagenic call (Test System: Ames Salmonella typhimurium, Strain/Indicator: TA100, Metabolic Activation: None, Method: Standard plate): inactive; negative
mutagenic call (Test System: Ames Salmonella typhimurium, Strain/Indicator: TA100, Metabolic Activation: Rat, Liver, S-9, Method: Standard plate): inactive; negative

COc1ccc2nc3occc3c(OC)c2c1
mutagenic call (Test System: AMES SALMONELLA TYPHIMURIUM, Strain/Indicator: TA98, Metabolic Activation: RAT, LIVER, S-9, PHENOBARBITAL, Method: STANDARD PLATE): active; positive
mutagenic call (Test System: AMES SALMONELLA TYPHIMURIUM, Strain/Indicator: TA100, Metabolic Activation: RAT, LIVER, S-9, PHENOBARBITAL, Method: STANDARD PLATE): active; positive

c1ccc2c(c1)c1ccccc1c1cc3cnccc3cc21
mutagenic call [1]: inactive; negative
mutagenic call (Test System: AMES SALMONELLA TYPHIMURIUM, Strain/Indicator: TA98, Metabolic Activation: RAT, LIVER, S-9, AROCLOR 1254 (10%), Method: STANDARD PLATE): active; positive
mutagenic call [2]: active; positive
mutagenic call [3]: inactive; negative
mutagenic call (Test System: AMES SALMONELLA TYPHIMURIUM, Strain/Indicator: TA100, Metabolic Activation: RAT, LIVER, S-9, AROCLOR 1254 (10%), Method: STANDARD PLATE): active; positive
mutagenic call [4]: active; positive

CCCCN(N=O)C(N)=O
mutagenic call (Test System: AMES SALMONELLA TYPHIMURIUM, Strain/Indicator: TA100, Metabolic Activation: NONE, Method: PREINCUBATION): active; positive
mutagenic call (Test System: AMES SALMONELLA TYPHIMURIUM, Strain/Indicator: TA100, Metabolic Activation: RAT, LIVER, S-9, KC500 OR PHENOBARBITAL, Method: LIQUID SUSPENSION): active; positive
mutagenic call (Test System: AMES SALMONELLA TYPHIMURIUM, Strain/Indicator: TA1535, Metabolic Activation: NONE, Method: PREINCUBATION): active; positive
mutagenic call [5]: active; positive
mutagenic call (Test System: CHINESE HAMSTER V-79, Strain/Indicator: V-79/6-THIOGUANINE, Metabolic Activation: NONE, Method: FLASK ASSAY): active; positive
mutagenic call (Test System: CHO/HGPRT, Strain/Indicator: CHO-K1-BH4, Metabolic Activation: NONE, Method: STANDARD PLATE): active; positive
mutagenic call (Test System: E. COLI B, Strain/Indicator: H/R30R, Metabolic Activation: NONE): active; positive
mutagenic call (Test System: E. COLI B, Strain/Indicator: HS30R, Metabolic Activation: NONE): active; positive
mutagenic call (Test System: E. COLI, Strain/Indicator: WP2, Metabolic Activation: NONE, Method: STANDARD PLATE): active; positive
mutagenic call (Test System: E. COLI, Strain/Indicator: WP2 UVRA, Metabolic Activation: NONE, Method: PREINCUBATION): active; positive
mutagenic call (Test System: E. COLI, Strain/Indicator: WP2 UVRA, Metabolic Activation: NONE, Method: STANDARD PLATE): active; positive
mutagenic call (Test System: E. COLI, Strain/Indicator: WP2 UVRA, Metabolic Activation: RAT, LIVER, S-9, PHENOBARBITAL AND 5,6-BENZOFLAVONE, Method: PREINCUBATION): active; positive

CCSCCSP(=O)(OC)OC
mutagenic call (Test System: AMES SALMONELLA TYPHIMURIUM, Strain/Indicator: TA97A, Metabolic Activation: NONE, Method: STANDARD PLATE): inactive; negative
mutagenic call (Test System: AMES SALMONELLA TYPHIMURIUM, Strain/Indicator: TA97A, Metabolic Activation: PLANT, HOMOGENATE, S-14, Method: STANDARD PLATE): inactive; negative
mutagenic call (Test System: AMES SALMONELLA TYPHIMURIUM, Strain/Indicator: TA97A, Metabolic Activation: S-9, Method: STANDARD PLATE): inactive; negative
mutagenic call [1]: inactive; negative
mutagenic call (Test System: AMES SALMONELLA TYPHIMURIUM, Strain/Indicator: TA98, Metabolic Activation: PLANT, HOMOGENATE, S-14, Method: STANDARD PLATE): inactive; negative
mutagenic call (Test System: AMES SALMONELLA TYPHIMURIUM, Strain/Indicator: TA98, Metabolic Activation: RAT, LIVER, S-9, Method: STANDARD PLATE): inactive; negative
mutagenic call (Test System: AMES SALMONELLA TYPHIMURIUM, Strain/Indicator: TA98, Metabolic Activation: S-9, Method: STANDARD PLATE): inactive; negative
mutagenic call (Test System: AMES SALMONELLA TYPHIMURIUM, Strain/Indicator: TA98, Metabolic Activation: WHEAT SEEDLING, S-14, Method: STANDARD PLATE): inactive; negative
mutagenic call [3]: inactive; negative
mutagenic call (Test System: AMES SALMONELLA TYPHIMURIUM, Strain/Indicator: TA100, Metabolic Activation: PLANT, HOMOGENATE, S-14, Method: STANDARD PLATE): inactive; negative
mutagenic call (Test System: AMES SALMONELLA TYPHIMURIUM, Strain/Indicator: TA100, Metabolic Activation: S-9, Method: STANDARD PLATE): inactive; negative
mutagenic call (Test System: AMES SALMONELLA TYPHIMURIUM, Strain/Indicator: TA102, Metabolic Activation: NONE, Method: STANDARD PLATE): inactive; negative
mutagenic call (Test System: AMES SALMONELLA TYPHIMURIUM, Strain/Indicator: TA102, Metabolic Activation: RAT, LIVER, S-9, Method: STANDARD PLATE): inactive; negative
mutagenic call (Test System: AMES SALMONELLA TYPHIMURIUM, Strain/Indicator: TA102, Metabolic Activation: WHEAT SEEDLING, S-14, Method: STANDARD PLATE): inactive; negative
mutagenic call [5]: inactive; negative
mutagenic call (Test System: AMES SALMONELLA TYPHIMURIUM, Strain/Indicator: TA1535, Metabolic Activation: PLANT, HOMOGENATE, S-14, Method: STANDARD PLATE): inactive; negative
mutagenic call (Test System: AMES SALMONELLA TYPHIMURIUM, Strain/Indicator: TA1535, Metabolic Activation: RAT, LIVER, S-9, Method: STANDARD PLATE): inactive; negative
mutagenic call (Test System: AMES SALMONELLA TYPHIMURIUM, Strain/Indicator: TA1535, Metabolic Activation: S-9, Method: STANDARD PLATE): inactive; negative
mutagenic call (Test System: AMES SALMONELLA TYPHIMURIUM, Strain/Indicator: TA1535, Metabolic Activation: WHEAT SEEDLING, S-14, Method: STANDARD PLATE): inactive; negative

O=C1C=C2c3cc4ccccc4cc3-c3cccc(c32)C1=O
mutagenic call [4]: active; positive

O=[N+]([O-])c1ccc2[nH]c3ccc([N+](=O)[O-])cc3c2c1
mutagenic call (Test System: AMES SALMONELLA TYPHIMURIUM, Strain/Indicator: TA98(NR), Metabolic Activation: NONE, Method: STANDARD PLATE): active; positive
mutagenic call (Test System: AMES SALMONELLA TYPHIMURIUM, Strain/Indicator: TA98(NR), Metabolic Activation: RAT, LIVER, S-9, AROCLOR 1254, Method: STANDARD PLATE): active; positive
mutagenic call [1]: active; positive
mutagenic call [2]: active; positive
